Assay [1] deals with human GABAA α2β2γ1 receptor (Homo sapiens (Human), UniProt P47869+Q8N1C3). Nature of the assay: Radioligand binding assay, [3H]RO7239181 competition, γ1-containing GABAA subtypes. Particulars: for Ki: HEK293F membranes, [3H]RO7239181 20-30 nM, mean of two determinations, read-out: Ki h-GABAA α2β2γ1; for γ2/γ1 Selectivity Ratio: Ki α1β3γ2 (nM)/Ki α2β2γ1 (nM); for LogSel: Log[Ki α1β3γ2 (nM)/Ki α2β2γ1 (nM)].

For assay [2], the target named is human GABAA α1β2γ1 receptor (Homo sapiens (Human), UniProt P14867+Q8N1C3). Described as above. Particulars: HEK293F membranes, [3H]RO7239181 20-30 nM, mean of two determinations.
Assay [3] deals with human GABAA α5β2γ1 receptor (Homo sapiens (Human), UniProt P31644+Q8N1C3). The description is as above. Particulars: HEK293F membranes, mean of two determinations.
Assay [4] has as its target human GABAA α1β3γ2 receptor (Homo sapiens (Human), UniProt P14867+P18507). The assay is described as follows: Radioligand binding assay, [3H]Flumazenil competition, γ2-containing GABAA subtypes. The note with it: HEK293F membranes, [3H]Flumazenil 1 nM, mean of two determinations; read-out: Ki h-GABAA α1β3γ2. In a few lines:
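Competition with [3H]Flumazenil (81.1 Ci/mmol) for binding to HEK293F cells transiently expressing human α1β3γ2 receptors, prepared in Mannitol Buffer pH 7.2-7.4. Incubated 1 hour at 4° C to equilibrium, filtered, washed with ice-cold 50 mM Tris pH 7.5, counted by liquid scintillation. Ki values are means of two determinations.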

Molecules are shown by their SMILES.

As to `Cc1nccc(-c2nnc3n2-c2ccc(Cl)c(Cl)c2C(c2c(F)cccc2F)=N[C@H]3C)n1` [Example 95, (4S)-7,8-dichloro-6-(2,6-difluorophenyl)-4-methyl-1-(2-methylpyrimidin-4-yl)-4H-[1,2,4]triazolo[4,3-a][1,4]benzodiazepine], the Ki in assay [1] was determined as 14.2 nM; in assay [2], 24.7 nM; in assay [3], 1.5 nM; in assay [4] it was 466 nM. In addition, the “γ2/γ1 Selectivity Ratio” value in assay [1] is recorded as 32.7. Besides, the LogSel in assay [1] came out at 1.51.
Take `Cc1cc(-c2nnc3n2-c2ccc(Cl)c(Cl)c2C(c2c(F)cccc2F)=N[C@H]3C)nc(C)n1` [Example 96, (4S)-7,8-dichloro-6-(2,6-difluorophenyl)-1-(2,6-dimethylpyrimidin-4-yl)-4-methyl-4H-[1,2,4]triazolo[4,3-a][1,4]benzodiazepine]: the Ki in assay [1] stood at 13.9 nM; in assay [2], 27.9 nM; in assay [3], 3 nM; in assay [4], 473 nM. Besides, the “γ2/γ1 Selectivity Ratio” value in assay [1] was determined as 34.1. For the same compound, the LogSel in assay [1] is listed as 1.53.
Regarding `Cc1ccc2c(c1Cl)C(c1c(F)cccc1F)=N[C@@H](C)c1nnc(C)n1-2` [Example 97, (4S)-7-chloro-6-(2,6-difluorophenyl)-1,4,8-trimethyl-4H-[1,2,4]triazolo[4,3-a][1,4]benzodiazepine], the Ki stood at 27.1 nM in assay [1], 33.6 nM in assay [2], 2.5 nM in assay [3] and 425 nM in assay [4]. The “γ2/γ1 Selectivity Ratio” value in assay [1] is recorded as 15.7. For the same compound, the LogSel in assay [1] is reported as 1.19.
Consider `CC[C@@H]1N=C(c2c(F)cccc2F)c2c(ccc(Br)c2Cl)-n2c(C)nnc21` [Example 98, (4S)-8-bromo-7-chloro-6-(2,6-difluorophenyl)-4-ethyl-1-methyl-4H-[1,2,4]triazolo[4,3-a][1,4]benzodiazepine], for which the Ki in assay [1] came to 72 nM; in assay [2], 57.6 nM; in assay [3], 4.4 nM; in assay [4], 1460 nM. Moreover, the “γ2/γ1 Selectivity Ratio” value in assay [1] is given as 20.3. The compound further registered a LogSel in assay [1] of 1.31.
In the case of `Cc1nnc2n1-c1ccc(C(F)F)c(Cl)c1C(c1c(F)cccc1F)=N[C@H]2C` [Example 99, (4S)-7-chloro-8-(difluoromethyl)-6-(2,6-difluorophenyl)-1,4-dimethyl-4H-[1,2,4]triazolo[4,3-a][1,4]benzodiazepine], the Ki in assay [1] worked out at 55.4 nM; in assay [2], 63.4 nM; in assay [3], 3.2 nM; in assay [4], 2020 nM. In assay [1], the “γ2/γ1 Selectivity Ratio” value is 36.4. For the same compound, in assay [1], the LogSel is listed as 1.56.
With `COC[C@@H]1N=C(c2c(F)cccc2F)c2c(ccc(Br)c2Cl)-n2c(C)nnc21` [Example 100, (4R)-8-bromo-7-chloro-6-(2,6-difluorophenyl)-4-(methoxymethyl)-1-methyl-4H-[1,2,4]triazolo[4,3-a][1,4]benzodiazepine], the Ki stood at 19.8 nM in assay [1], 34 nM in assay [2], 3.4 nM in assay [3] and 288 nM in assay [4]. Besides, the “γ2/γ1 Selectivity Ratio” value in assay [1] was 14.6. The compound further registered a LogSel in assay [1] of 1.16.
Take `Cc1nnc2n1-c1ccc(Br)c(Cl)c1C(c1c(F)cccc1F)=N[C@H]2CO` [Example 101, [(4R)-8-bromo-7-chloro-6-(2,6-difluorophenyl)-1-methyl-4H-[1,2,4]triazolo[4,3-a][1,4]benzodiazepin-4-yl]methanol]: the Ki in assay [1] was 26.4 nM; in assay [2], 14.3 nM; in assay [3], 1 nM; in assay [4], 495 nM. In assay [1], the “γ2/γ1 Selectivity Ratio” value is on record as 18.8. The LogSel in assay [1] turned out to be 1.27.
Turning to `Cc1nnc2n1-c1ccc(I)c(Cl)c1C(c1c(F)cccc1F)=N[C@H]2C` [Example 102, (4S)-7-chloro-6-(2,6-difluorophenyl)-8-iodo-1,4-dimethyl-4H-[1,2,4]triazolo[4,3-a][1,4]benzodiazepine], the Ki is 8 nM in assay [1], 6.6 nM in assay [2], 0.8 nM in assay [3] and 278 nM in assay [4]. Also, in assay [1], the “γ2/γ1 Selectivity Ratio” value was 34.7. Also, in assay [1], the LogSel was 1.54.
As to `C[C@@H]1N=C(c2c(F)cccc2F)c2c(ccc(C(F)(F)F)c2Cl)-n2c(CO)nnc21` [Example 103, [(4S)-7-chloro-6-(2,6-difluorophenyl)-4-methyl-8-(trifluoromethyl)-4H-[1,2,4]triazolo[4,3-a][1,4]benzodiazepin-1-yl]methanol], the Ki in assay [1] amounted to 50.4 nM; in assay [2], 49.8 nM; in assay [3], 5.4 nM; in assay [4], 3380 nM. In addition, the “γ2/γ1 Selectivity Ratio” value in assay [1] is reported as 67.0. In addition, in assay [1], the LogSel was determined as 1.83.

By Ki is commonly meant the dissociation constant of the complex between target and ligand, obtained from inhibition or displacement.

The record behind these values is patent US20240002393A1, “SUBSTITUTED BENZO[f][l ,2,4JTRIAZOL0[4,3-a][l ,4J[…] GABA A GAMMA! POSITIVE ALLOSTERIC MODULATORS” (Hoffmann-La Roche Inc., priority 2020, published 2024).
